From patent US20260355080A1, “COSMETIC COMPOSITION FOR PREVENTING OR AMELIORATING SKIN DISEASES, COMPRISING MORUS ALBA-DERIVED COMPOUND AS ACTIVE INGREDIENT” (DONGGUK UNIVERSITY INDUSTRY-ACADEMIC COOPERATION FOUNDATION, priority 2022, published 2026)

Key:
Type in all cases: cell-based
[1] = MTT cytotoxicity assay in melanocytes; details: human, tested at 10, 50, and 100 μM, FIG. 1, read-out: treatment concentration up to which no cytotoxicity was shown
Experimental: (§1) Melanocytes used were isolated from normal adult skin tissues obtained through repeated cesarean section and circumcision. Dispase 2.4U (#295 825; Roche, Mannheim, Germany) was treated for 1 hour to separate the epidermis, and 0.05% trypsin was treated for 10 minutes to isolate melanocytes. Afterwards, the cells were suspended in Medium 254, and the bovine pituitary extract (BPE), fetal bovine serum (FBS), hydrocortisone, basic fibroblast growth factor (bFGF), bovine transferrin (BT), heparin, and phorbol 12-myristate13-acetate (PMA, Invitrogen) were added and cultured. The cells that had undergone the 3rd~5th passage culture were used in the experiment.
In order to identify cytotoxicity of the 136 candidate materials, MTT assays were performed. Melanocytes were treated with the candidate materials by concentration (10, 50, and 100 μM) for 48 hours, and the cell viability was measured to determine the concentration range at which no cytotoxicity of each candidate material is observed.

tyrosinase [2] = test: Western blot of intracellular tyrosinase expression in melanocytes (skin whitening effect); details: 10 μM M55 (other candidates at non-cytotoxic concentration), 48 hours, FIG. 2
Experimental: as §1
In order to identify the skin whitening effect of the 136 candidate materials, Western blot was performed. After treating melanocytes with the candidate material at a concentration at which no cytotoxicity was shown in the melanocytes identified in Example 1-2 for 48 hours, intracellular tyrosinase expression was measured. The experiment was repeated 4 times or more.

tyrosinase [3] = test: Western blot of tyrosinase expression in ARG2 overexpressing keratinocyte/melanocyte co-cultured cell model; details: 10 μM, 48 hours, P<0.05 significant, FIG. 3
Experimental: (§2) Keratinocytes were seeded in a culture container at 2×10^5/ml, after 24 hours, pCMV plasmids containing one of three genes [arginase 2 (ARG2, NCBI Gene ID: 384), cadherin 11 (CDH11, NCBI Gene: 1009), and guanine deaminase (GDA, NCBI Gene: 9615)] were transfected into cells using Lipofectamine 2000 to induce overexpression, and after 4 hours of culture with Dulbecco's Modified Essential Medium (DMEM) culture medium without supplements, 0.5×10^5/ml melanocytes were mixed with the keratinocyte culture medium containing supplements and co-cultured in the same culture container. After 24 hours, the keratinocyte culture medium without supplements was replaced, and after 5 hours, the normal melanocytes were treated with the 16 candidate materials for 48 hours. […]
(§3) In order to identify the skin whitening and anti-aging effects of 16 candidate materials in Example 1-2, for the skin whitening effect, each of the three types of cell models constructed in the Example 2-1 was treated with the 16 candidate materials at concentrations at which no cytotoxicity is shown in the melanocytes identified in Example 1-1 for 48 hours, and then Western blot was performed to measure the expression of tyrosinase. The experiment was repeated 4 times, and P<0.05 was determined to be significant. […] The experiment was repeated 4 times, and P<0.05 was determined to be significant.

tyrosinase [4] = test: Western blot of tyrosinase expression in CDH11 overexpressing keratinocyte/melanocyte co-cultured cell model; details: 10 μM, 48 hours, FIG. 3
Experimental: as §2, §3

tyrosinase [5] = test: Western blot of tyrosinase expression in control gene overexpressing (pCMV) keratinocyte/melanocyte co-cultured cell model; details: control gene overexpressing co-cultured cell model (pCMV, of the CDH11 experiment), 10 μM, 48 hours; FIG. 3
Experimental: as §2, §3

tyrosinase [6] = test: Western blot of tyrosinase expression in GDA overexpressing keratinocyte/melanocyte co-cultured cell model; details: 10 μM, 48 hours, P<0.05 significant, FIG. 3
Experimental: as §2, §3

p16 (Ink4a) = test: Western blot of p16 (Ink4a) expression in keratinocytes (anti-aging effect); details: 10 μM, 48 hours, P<0.05 significant, FIG. 4
Experimental: Keratinocytes used were isolated from normal adult skin tissues obtained through repeated cesarean section and circumcision. The cells were dispensed into EpiLife Medium, and bovine pituitary extract (BPE), bovine insulin (BI), hydrocortisone, human epidermal growth factor (EGF), and bovine transferrin (BT) were added and cultured. The cells that had undergone the 3rd~5th passage culture were used in the experiment. The pituitary extract, bovine insulin, hydrocortisone, human epidermal growth factor, and bovine transferrin were used by purchasing from Invitrogen.
In order to identify the skin whitening and anti-aging effects of 16 candidate materials in Example 1-2, for the skin whitening effect, each of the three types of cell models constructed in the Example 2-1 was treated with the 16 candidate materials at concentrations at which no cytotoxicity is shown in the melanocytes identified in Example 1-1 for 48 hours, and then Western blot was performed to measure the expression of tyrosinase. The experiment was repeated 4 times, and P<0.05 was determined to be significant. In addition, for analysis on the anti-aging effect, the keratinocytes were treated with the above 16 candidate materials for 48 hours each, and then Western blot was performed to measure the expression of p16 (Ink4a). The experiment was repeated 4 times, and P<0.05 was determined to be significant.

tyrosinase; p16 (Ink4a) = test: Combined analysis of skin whitening (tyrosinase expression, co-cultured cell models) and anti-aging (p16 expression, keratinocytes) effects; details: 16 candidate materials tested, 48 hours
Experimental: as §2, §3

SMILES: COC(=O)C[C@@H](O)CC(=O)O [M55]
- MNTC at 48 h [1]: ≥ 10 µM
- tyrosinase expression compared to the control group (tyrosinase [2]): significantly reduced
- tyrosinase expression compared to the control group (tyrosinase [3]): significant decrease
- tyrosinase expression compared to the control group (tyrosinase [4]): reduced
- tyrosinase expression compared to the control group (tyrosinase [5]): increased
- tyrosinase expression compared to the control group (tyrosinase [6]): significant decrease
- p16 (Ink4a) expression compared to the control group (p16 (Ink4a)): significantly reduced
- skin whitening and anti-aging effects shown together (tyrosinase; p16 (Ink4a)): skin whitening and anti-aging effects were shown together
